In patent publication US20260374766A1, “METHODS FOR TREATING CANCER” (Antares Therapeutics, Inc., priority 2022, published 2026):

Key:
[1] = test system: NUGC3 p53 Y220C; assay: Cell Proliferation Assay (CellTiter-Glo, CTG), NUGC3 p53 Y220C; assay type: cell-based; details: Homo sapiens, NUGC-3, 120 h, CellTiter-Glo, NUGC3 p53 Y220C, 5 days
How it was run: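 Tet-One inducible p53 Y220C or R273H constructs were stably introduced into NCI-H1299 by lentiviral transduction; NUGC3 was used as is. Cells (250-500 per well) were exposed to compound for 5 days, then CellTiter-Glo was added for 10 min at room temperature and IC50 was calculated from luminescence.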

[2] = biological target: T1, p53 Y220C mutant protein (amino acid residues 94-293) (Homo sapiens, UniProt P04637, Y220C); assay: Surface Plasmon Resonance (SPR) assay, Kd_kinetic; assay type: binding; details: SPR, kinetic KD, p53 Y220C; read-out: SPR P53 Y220C KD kinetic
T1 construct: p53 Y220C mutant protein (amino acid residues 94-293)
How it was run: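 Surface plasmon resonance is run at 16 or 20 °C in 50 mM Tris pH 7.5 containing 100 mM NaCl, 1 mM DTT, 0.01% Brij35, 0.05% Tween-20 and 1% DMSO. Association and dissociation data are fitted to a 1:1 model.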

[3] = test system: H1299 p53 Y220C; assay: Cell Proliferation Assay (CellTiter-Glo, CTG), H1299 p53 Y220C (NClH1299-inducible p53 Y220C); assay type: cell-based; details: Homo sapiens, NCI-H1299, 120 h, CellTiter-Glo, H1299 p53 Y220C, 5 days
How it was run: (§1)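 Cells seeded at 250-500 per well and exposed to compound for 5 days. Viability read by CellTiter-Glo luminescence after 10 min at room temperature; IC50 calculated. H1299 lines carry Tet-One inducible p53 mutant constructs introduced by lentiviral transduction.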

[4] = test system: H1299 p53 R273H; assay: Cell Proliferation Assay (CellTiter-Glo, CTG), H1299 p53 R273H (NClH1299-inducible p53 R273H); assay type: cell-based; details: Homo sapiens, NCI-H1299, 120 h, CellTiter-Glo, H1299 p53 R273H, 5 days
How it was run: as §1

[5] = biological target: p53 Y220C (Homo sapiens, UniProt P04637, Y220C); assay: Luciferase Reporter Assay (Luc), p53 response element, NClH1299 cells with inducible p53 Y220C; assay type: cell-based; details: luciferase reporter, NClH1299 inducible p53 Y220C, 6 hour; for Emax: 10 uM tool compound as positive control; for AC50: read-out: Luc P53 Y220C AC50
How it was run: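 H1299 cells induced with 0.5 ug/mL doxycycline for 24 hours, then exposed to compound for 6 hours. p53 response-element luciferase read by One-Glo luminescence after 5 min shaking at room temperature.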

[6] = biological target: T1, p53 Y220C mutant protein (amino acid residues 94-293); assay: Thermal Shift Assay (TSA), dTM; assay type: binding; details: thermal shift; for ΔTm at 10 µM: 10 uM compound, read-out: TSA P53 Y220C dTM (10 uM); for ΔTm at 100 µM: 100 uM compound, read-out: TSA P53 Y220C dTM (100 uM)
How it was run: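 5 μM p53 Y220C (residues 94-293) incubated 3 h at 20 °C with 10 μM or 100 μM compound in 20 mM HEPES pH 7.4, 100 mM NaCl, 0.01% Pluronic F-127, 1% DMSO plus Sypro Orange. Melt from 30 to 50 °C at 0.03 °C/s; TM from Boltzmann two-state fit.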

Row | Kd [2] [nM] | IC50 [3] [nM] | IC50 [4] [nM] | Emax [5] [%] | AC50 [5] [nM] | ΔTm at 10 µM [6] [°C] | ΔTm at 100 µM [6] [°C] | SMILES | IC50 [1] [nM]
1 | 10 to 100 | > 3000 | ≥ 10000 | 80 to 90 | > 3000 | 5 to 10 | 5 to 10 | COc1cc(S(C)(=O)=O)ccc1NCC#Cc1nc2c(NC3CCN(CCS(C)(=O)=O)CC3)cccn2c1CC(F)(F)F [Example 5, N-(2-{3-[(4-methanesulfonyl-2-methoxyphenyl)amino]prop-1-yn-1-yl}-3-(2,2,2-trifluoroethyl)imidazo[1,2-a]pyridin-8-yl)-1-(2-methanesulfonylethyl) piperidin-4-amine] | 1500 to 3000
2 | 10 to 100 | 1500 to 3000 | ≥ 10000 | 70 to 80 | 1500 to 3000 |  | ≥ 10 | COc1cc(S(C)(=O)=O)ccc1NCC#Cc1nc2c(N[C@H]3CCN(C)C[C@H]3F)cccn2c1CC(F)(F)F [Example 6, (3R,4S)-3-fluoro-N-(2-{3-[(4-methanesulfonyl-2-methoxyphenyl)amino]prop-1-yn-1-yl}-3-(2,2,2-trifluoroethyl)imidazo[1,2-a]pyridin-8-yl)-1-methylpiperidin-4-amine] | 1500 to 3000
3 | 10 to 100 | 1500 to 3000 | 5000 to 8000 | < 70 | > 3000 |  | 5 to 10 | COc1cc(S(C)(=O)=O)ccc1NCC#Cc1nc2c(NC3CCN(C4CC4)CC3)cccn2c1CC(F)(F)F [Example 7, 1-cyclopropyl-N-(2-{3-[(4-methanesulfonyl-2-methoxyphenyl)amino]prop-1-yn-1-yl}-3-(2,2,2-trifluoroethyl)imidazo[1,2-a]pyridin-8-yl)piperidin-4-amine] | 1500 to 3000
4 | < 10 | 750 to 1500 | 5000 to 8000 | 70 to 80 | 750 to 1500 |  | ≥ 10 | COc1cc(S(C)(=O)=O)ccc1NCC#Cc1nc2c(N[C@@H]3CCNC[C@@H]3F)cccn2c1CC(F)(F)F [Example 8, (3S,4R)-3-fluoro-N-(2-{3-[(4-methanesulfonyl-2-methoxyphenyl)amino]prop-1-yn-1-yl}-3-(2,2,2-trifluoroethyl)imidazo[1,2-a]pyridin-8-yl)piperidin-4-amine] | 750 to 1500
5 | 10 to 100 | 1500 to 3000 | 5000 to 8000 | 70 to 80 | 1500 to 3000 |  | ≥ 10 | COc1cc(S(C)(=O)=O)ccc1NCC#Cc1nc2c(NC3CCN(C(C)C)CC3)cccn2c1CC(F)(F)F [Example 9, 1-isopropyl-N-(2-{3-[(4-methanesulfonyl-2-methoxyphenyl)amino]prop-1-yn-1-yl}-3-(2,2,2-trifluoroethyl)imidazo[1,2-a]pyridin-8-yl)piperidin-4-amine] | 1500 to 3000
6 | 10 to 100 | 750 to 1500 | 5000 to 8000 | 70 to 80 | 1500 to 3000 |  | ≥ 10 | COc1cc(S(C)(=O)=O)ccc1NCC#Cc1nc2c(NC3CCN(CC(C)(C)O)CC3)cccn2c1CC(F)(F)F [Example 11, 1-{4-[(2-{3-[(4-methanesulfonyl-2-methoxyphenyl)amino]prop-1-yn-1-yl}-3-(2,2,2-trifluoroethyl)imidazo [1,2-a]pyridin-8-yl)amino]piperidin-1-yl}-2-methylpropan-2-ol] | 1500 to 3000
7 | 10 to 100 | 1500 to 3000 | ≥ 10000 | 70 to 80 | 1500 to 3000 |  | ≥ 10 | COC[C@@H](O)CN1CCC(Nc2cccn3c(CC(F)(F)F)c(C#CCNc4ccc(S(C)(=O)=O)cc4OC)nc23)CC1 [Example 12, (2S)-1-{4-[(2-{3-[(4-methanesulfonyl-2-methoxyphenyl)amino]prop-1-yn-1-yl}-3-(2,2,2-trifluoroethyl)imidazo[1,2-a]pyridin-8-yl)amino]piperidin-1-yl}-3-methoxypropan-2-ol] | 750 to 1500
8 | 10 to 100 | 750 to 1500 | 5000 to 8000 | 70 to 80 | 1500 to 3000 |  | ≥ 10 | COC[C@H](O)CN1CCC(Nc2cccn3c(CC(F)(F)F)c(C#CCNc4ccc(S(C)(=O)=O)cc4OC)nc23)CC1 [Example 14, (2R)-1-{4-[(2-{3-[(4-methanesulfonyl-2-methoxyphenyl)amino]prop-1-yn-1-yl}-3-(2,2,2-trifluoroethyl)imidazo[1,2-a]pyridin-8-yl)amino]piperidin-1-yl}-3-methoxypropan-2-ol] | 750 to 1500
9 | 10 to 100 | 1500 to 3000 | 8000 to 10000 | < 70 | 1500 to 3000 |  | 5 to 10 | CCc1c(C#CCNc2ccc(S(C)(=O)=O)cc2OC)nc2c(N[C@@H]3CCN(C)C[C@@H]3F)cccn12 [Example 15, (3S,4R)—N-(3-ethyl-2-{3-[(4-methanesulfonyl-2-methoxyphenyl)amino]prop-1-yn-1-yl}imidazo[1,2-a]pyridin-8-yl)-3-fluoro-1-methylpiperidin-4-amine] | 1500 to 3000
10 | 10 to 100 | > 3000 | 5000 to 8000 | < 70 | > 3000 |  | 5 to 10 | CCc1c(C#CCNc2ccc(S(C)(=O)=O)cc2OC)nc2c(NC3CCN(C)CC3)cccn12 [Example 16, N-(3-ethyl-2-{3-[(4-methanesulfonyl-2-methoxyphenyl)amino]prop-1-yn-1-yl}imidazo[1,2-a]pyridin-8-yl)-1-methylpiperidin-4-amine] | > 3000
11 | 100 to 1000 | > 3000 | ≥ 10000 | < 70 | > 3000 |  | 1 to 5 | CCOc1c(C#CCNc2ccc(C(=O)NC)cc2OC)nc2c(N[C@@H]3CCN(C)C[C@@H]3F)cccn12 [Example 17, 4-{[3-(3-ethoxy-8-{[(3S,4R)-3-fluoro-1-methylpiperidin-4-yl]amino}imidazo[1,2-a]pyridin-2-yl)prop-2-yn-1-yl]amino}-3-methoxy-N-methylbenzamide] | > 3000
12 | 10 to 100 | > 3000 | ≥ 10000 | < 70 | > 3000 |  | 5 to 10 | CC#Cc1nn2c(N[C@@H]3CCN(C)C[C@@H]3F)cccc2c1CC(F)(F)F [Example 20, (3S,4R)-3-fluoro-1-methyl-N-[2-(prop-1-yn-1-yl)-3-(2,2,2-trifluoroethyl)pyrazolo[1,5-a]pyridin-7-yl]piperidin-4-amine] | > 3000
13 | 100 to 1000 | > 3000 | ≥ 10000 | < 70 | > 3000 |  | 5 to 10 | CNC(=O)c1ccc(NCC#Cc2nc3c(N[C@@H]4CCN(C)C[C@@H]4F)cccn3c2NC)c(OC)c1 [Example 25, 4-{[3-(8-{[(3S,4R)-3-fluoro-1-methylpiperidin-4-yl]amino}-3-(methylamino)imidazo[1,2-a]pyridin-2-yl)prop-2-yn-1-yl]amino}-3-methoxy-N-methylbenzamide] | > 3000
14 | 100 to 1000 | > 3000 | ≥ 10000 | < 70 | > 3000 |  | 5 to 10 | CNC(=O)c1ccc(NCC#Cc2nc3c(N[C@@H]4CCN(C)C[C@@H]4F)cccn3c2C2CC2)c(OC)c1 [Example 29, 4-{[3-(3-cyclopropyl-8-{[(3S,4R)-3-fluoro-1-methylpiperidin-4-yl]amino}imidazo[1,2-a]pyridin-2-yl)prop-2-yn-1-yl]amino}-3-methoxy-N-methylbenzamide] | > 3000
15 | < 10 | > 3000 | ≥ 10000 | < 70 | > 3000 | 1 to 5 | 1 to 5 | COc1cc(S(C)(=O)=O)ccc1NCC#Cc1nc2c(NC3CCN(C)CC3)cc(N)cn2c1CC(F)(F)F [Example 32, 2-{3-[(4-methanesulfonyl-2-methoxyphenyl)amino]prop-1-yn-1-yl}-N8-(1-methylpiperidin-4-yl)-3-(2,2,2-trifluoroethyl) imidazo[1,2-a]pyridine-6,8-diamine] | > 3000
